ChEMBL document CHEMBL1139987 (Bioorg Med Chem Lett, 2007)

Key:
[1] = target: Insulin-like growth factor 1 receptor (Homo sapiens, UniProt P08069); test: Inhibition of IGF1R
MCF7 = test: Inhibition of IGF1 mediated cell growth in MCF7 cells; conditions: Homo sapiens
[2] = target: T1, Polyunsaturated fatty acid lipoxygenase ALOX15 (Homo sapiens, UniProt P16050)
T1 sequence (P16050 whole entry): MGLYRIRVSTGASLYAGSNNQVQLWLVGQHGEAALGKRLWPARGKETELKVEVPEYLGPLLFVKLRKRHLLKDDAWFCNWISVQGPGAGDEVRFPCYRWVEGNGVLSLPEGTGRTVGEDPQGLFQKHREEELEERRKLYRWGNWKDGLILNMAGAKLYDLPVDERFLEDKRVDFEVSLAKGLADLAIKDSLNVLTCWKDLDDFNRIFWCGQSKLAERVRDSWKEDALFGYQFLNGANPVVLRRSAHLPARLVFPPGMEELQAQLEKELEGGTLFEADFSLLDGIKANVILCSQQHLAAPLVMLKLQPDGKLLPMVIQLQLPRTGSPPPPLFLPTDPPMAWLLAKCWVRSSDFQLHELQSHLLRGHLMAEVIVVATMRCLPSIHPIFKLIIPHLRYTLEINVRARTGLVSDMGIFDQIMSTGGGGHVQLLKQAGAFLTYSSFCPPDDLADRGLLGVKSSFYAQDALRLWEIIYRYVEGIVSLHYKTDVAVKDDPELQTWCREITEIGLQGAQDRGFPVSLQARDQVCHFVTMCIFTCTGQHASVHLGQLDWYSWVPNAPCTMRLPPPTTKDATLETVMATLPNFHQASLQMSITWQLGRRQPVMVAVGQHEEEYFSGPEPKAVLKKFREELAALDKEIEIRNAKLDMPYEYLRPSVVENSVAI

Insulin-like growth factor 1 receptor, sequence (P08069 31-736 limits assumed): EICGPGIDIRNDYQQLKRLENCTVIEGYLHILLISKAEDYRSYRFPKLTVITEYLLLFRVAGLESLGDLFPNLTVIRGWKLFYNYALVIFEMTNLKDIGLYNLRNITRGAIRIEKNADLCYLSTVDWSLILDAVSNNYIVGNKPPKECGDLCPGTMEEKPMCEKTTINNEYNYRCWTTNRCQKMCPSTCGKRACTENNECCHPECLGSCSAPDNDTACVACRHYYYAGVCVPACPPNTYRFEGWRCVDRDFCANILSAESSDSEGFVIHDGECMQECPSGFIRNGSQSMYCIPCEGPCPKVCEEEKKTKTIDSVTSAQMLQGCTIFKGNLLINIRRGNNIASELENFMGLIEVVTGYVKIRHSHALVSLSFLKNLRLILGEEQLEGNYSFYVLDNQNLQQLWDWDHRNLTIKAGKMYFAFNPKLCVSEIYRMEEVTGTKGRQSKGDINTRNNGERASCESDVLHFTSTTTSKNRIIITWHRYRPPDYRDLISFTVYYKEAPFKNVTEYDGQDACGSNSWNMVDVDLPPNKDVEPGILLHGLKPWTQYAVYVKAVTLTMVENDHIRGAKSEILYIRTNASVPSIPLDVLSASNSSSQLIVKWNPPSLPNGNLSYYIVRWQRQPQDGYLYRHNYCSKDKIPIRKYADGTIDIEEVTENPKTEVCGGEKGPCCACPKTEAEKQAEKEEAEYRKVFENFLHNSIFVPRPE
Insulin-like growth factor 1 receptor, sequence (P08069 741-1367 limits assumed): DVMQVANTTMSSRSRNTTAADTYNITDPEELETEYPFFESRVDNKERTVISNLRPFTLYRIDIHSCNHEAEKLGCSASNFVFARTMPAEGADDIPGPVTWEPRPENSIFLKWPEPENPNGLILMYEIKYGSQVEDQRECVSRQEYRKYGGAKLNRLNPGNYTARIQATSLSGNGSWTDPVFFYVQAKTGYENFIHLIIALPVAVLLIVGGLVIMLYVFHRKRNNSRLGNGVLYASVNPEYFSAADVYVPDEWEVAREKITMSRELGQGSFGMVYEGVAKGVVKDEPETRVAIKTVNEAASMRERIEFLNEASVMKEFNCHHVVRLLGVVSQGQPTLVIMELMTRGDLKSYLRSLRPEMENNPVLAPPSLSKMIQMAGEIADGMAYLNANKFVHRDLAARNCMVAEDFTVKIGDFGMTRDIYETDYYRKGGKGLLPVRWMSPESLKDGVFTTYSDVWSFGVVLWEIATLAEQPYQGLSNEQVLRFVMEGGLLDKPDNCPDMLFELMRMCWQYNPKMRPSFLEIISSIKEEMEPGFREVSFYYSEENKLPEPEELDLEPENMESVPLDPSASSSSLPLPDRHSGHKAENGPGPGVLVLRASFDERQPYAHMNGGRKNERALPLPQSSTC

SMILES | IC50 [1] | IC50 (MCF7) | IC50 [2]
Oc1ccc(CCCCc2ccc(Cl)c(Cl)c2)cc1O | 1 µM | 21.5 µM | 
COc1ccc(CCCCc2ccc(O)c(O)c2)cc1 |  | 15.7 µM | 
Cc1ccc(CCCCc2ccc(O)c(O)c2)cc1 | 0.8 µM | 15.1 µM | 
Oc1ccc(CCCCc2ccc(O)c(O)c2)cc1O | 0.6 µM | 25.4 µM | 3.9 µM
Oc1cc2c(cc1O)C(c1ccccc1)CCC2 (stereo not drawn) | 1 µM | 12.3 µM | 
Oc1ccc(CCCCc2ccc(O)c(O)c2)cc1 | 1 µM | 36.2 µM | 9.4 µM
Oc1ccc(CCCCc2ccc(Cl)cc2)cc1O | 0.8 µM | 13.4 µM | 
Oc1ccc(CCCCc2ccccc2)cc1O |  | 11.2 µM | 7.3 µM
CC(Cc1ccc(O)c(O)c1)C(C)Cc1ccc(O)c(O)c1 (stereo not drawn) [NORDIHYDROGUAIARETIC ACID] |  | 24.6 µM | 
